From patent US6737383B1, “Herbicidal oxadiazolidines” (priority 1999, dated 2004)

Columns and labels:
[1] = system: rice; assay: Test B flood test rice; format: in vivo, Oryza sativa
Method in brief: (§1)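 Each value is a visual injury score relative to controls, with 10 meaning complete control and 0 no effect. Evaluation took place twelve to sixteen days after the 2-leaf-stage plants were treated and kept in the greenhouse.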

[2] = system: velvetleaf; assay: Test B pre/postemergence velvetleaf; format: in vivo, Abutilon theophrasti
Method in brief: (§2)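 Test chemicals in a non-phytotoxic solvent mixture with surfactant were sprayed preemergence onto planted seeds and postemergence onto plants 2 to 18 cm tall (1- to 4-leaf stage). After twelve to sixteen days in a greenhouse, injury was visually rated against untreated controls from 0 (no effect) to 10 (complete control).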

[3] = system: smallflower flatsedge; assay: Test B flood test smallflower flatsedge; format: in vivo, Cyperus difformis
Method in brief: as §1

[4] = system: rape; assay: Test B pre/postemergence rape; format: in vivo, Brassica napus
Method in brief: as §2

[5] = system: soybean; assay: Test B pre/postemergence soybean; format: in vivo, Glycine max
Method in brief: as §2

[6] = system: morningglory; assay: Test B pre/postemergence morningglory; format: in vivo, Ipomoea hederacea
Method in brief: as §2

[7] = system: wheat; assay: Test B pre/postemergence wheat; format: in vivo, Triticum aestivum
Method in brief: as §2

[8] = system: giant foxtail; assay: Test B pre/postemergence giant foxtail; format: in vivo, Setaria faberii
Method in brief: as §2

[9] = system: pigweed; assay: Test B pre/postemergence pigweed; format: in vivo, Amaranthus retroflexus
Method in brief: as §2

[10] = system: bamyardgrass; assay: Test B flood test barnyardgrass; format: in vivo, Echinochloa crus-galli
Method in brief: as §1

[11] = system: purple nutsedge; assay: Test B pre/postemergence purple nutsedge; format: in vivo, Cyperus rotundus
Method in brief: as §2

[12] = system: wild oat; assay: Test B pre/postemergence wild oat; format: in vivo, Avena fatua
Method in brief: as §2

[13] = system: bedstraw; assay: Test B pre/postemergence bedstraw; format: in vivo, Galium aparine
Method in brief: as §2

[14] = system: duck salad; assay: Test B flood test duck salad; format: in vivo, Heteranthera limosa
Method in brief: as §1

[15] = system: sugar beet; assay: Test B pre/postemergence sugar beet; format: in vivo, Beta vulgaris
Method in brief: as §2

[16] = system: blackgrass; assay: Test B pre/postemergence blackgrass; format: in vivo, Alopecurus myosuroides
Method in brief: as §2

[17] = Rate 62 g/ha, headed Pre-emergence (flood test species), scale 0 to 10 (0 no effect, 10 complete control)
[18] = Rate 125 g/ha, Pre-emergence, flood test species, scale 0 to 10 where 0 is no effect and 10 is complete control
[19] = Rate 250 g/ha, Pre-emergence, flood-test species, scale 0 to 10, 0 is no effect, 10 is complete control
[20] = Rate 500 g/ha, Pre-emergence, flood test species, scale 0 to 10 (0 no effect, 10 complete control)
[21] = Preemergence, Rate 62 g/ha, scale of 0 to 10 where 0 is no effect and 10 is complete control
[22] = Preemergence, Rate 250 g/ha, scale of 0 to 10 where 0 is no effect and 10 is complete control
[23] = Preemergence, Rate 500 g/ha, scale of 0 to 10 where 0 is no effect and 10 is complete control
[24] = Rate 125 g/ha, Postemergence, scale of 0 to 10 where 0 is no effect and 10 is complete control
[25] = Rate 125 g/ha, Preemergence, scale of 0 to 10 where 0 is no effect and 10 is complete control
[26] = Rate 250 g/ha, Postemergence, scale of 0 to 10 where 0 is no effect and 10 is complete control
[27] = Rate 500 g/ha, Postemergence, scale 0 to 10, 0 no effect, 10 complete control
[28] = Rate 62 g/ha, Postemergence, scale of 0 to 10 where 0 is no effect and 10 is complete control

SMILES: Cc1cccc(C)c1-n1c(=O)on(C(=O)N(C(C)C)C2C=CCCC2)c1=O (stereo not shown) [Compound 273]
- Rice plant response rating [1, 17]: 0
- Rice plant response rating [1, 18]: 0
- Rice plant response rating [1, 19]: 0
- Rice plant response rating [1, 20]: 0
- Velvetleaf plant response rating [2, 21]: 0
- Velvetleaf plant response rating [2, 22]: 0
- Plant response rating, Velvetleaf [2, 23]: 1
- Velvetleaf plant response rating [2, 24]: 0
- Velvetleaf plant response rating [2, 25]: 0
- Plant response rating, Velvetleaf [2, 26]: 0
- Velvetleaf plant response rating [2, 27]: 2
- S. Flatsedge plant response rating [3, 17]: 0
- S. Flatsedge plant response rating [3, 18]: 0
- S. Flatsedge plant response rating [3, 19]: 0
- S. Flatsedge plant response rating [3, 20]: 0
- Rape plant response rating [4, 21]: 0
- Rape plant response rating [4, 22]: 0
- Plant response rating, Rape [4, 23]: 0
- Rape plant response rating [4, 24]: 0
- Rape plant response rating [4, 25]: 0
- Plant response rating, Rape [4, 26]: 0
- Rape plant response rating [4, 27]: 0
- Soybean plant response rating [5, 21]: 0
- Soybean plant response rating [5, 22]: 0
- Plant response rating, Soybean [5, 23]: 0
- Soybean plant response rating [5, 24]: 3
- Soybean plant response rating [5, 25]: 0
- Plant response rating, Soybean [5, 26]: 3
- Soybean plant response rating [5, 27]: 4
- Morningglory plant response rating [6, 21]: 0
- Morningglory plant response rating [6, 22]: 0
- Plant response rating, Morningglory [6, 23]: 0
- Morningglory plant response rating [6, 24]: 0
- Morningglory plant response rating [6, 25]: 0
- Plant response rating, Morningglory [6, 26]: 2
- Morningglory plant response rating [6, 27]: 3
- Wheat plant response rating [7, 21]: 0
- Wheat plant response rating [7, 22]: 0
- Plant response rating, Wheat [7, 23]: 0
- Wheat plant response rating [7, 24]: 0
- Wheat plant response rating [7, 25]: 0
- Plant response rating, Wheat [7, 26]: 0
- Wheat plant response rating [7, 27]: 0
- Giant foxtail plant response rating [8, 21]: 7
- Giant foxtail plant response rating [8, 22]: 8
- Plant response rating, Giant foxtail [8, 23]: 9
- Giant foxtail plant response rating [8, 24]: 0
- Giant foxtail plant response rating [8, 25]: 8
- Plant response rating, Giant foxtail [8, 26]: 0
- Giant foxtail plant response rating [8, 27]: 2
- Redroot pigweed plant response rating [9, 21]: 0
- Redroot pigweed plant response rating [9, 22]: 0
- Plant response rating, Redroot pigweed [9, 23]: 0
- Redroot pigweed plant response rating [9, 24]: 0
- Redroot pigweed plant response rating [9, 25]: 0
- Plant response rating, Redroot pigweed [9, 26]: 2
- Redroot pigweed plant response rating [9, 27]: 4
- Barnyardgrass plant response rating [10, 17]: 0
- Barnyardgrass plant response rating [10, 18]: 4
- Barnyardgrass plant response rating [10, 19]: 4
- Barnyardgrass plant response rating [10, 20]: 3
- Nutsedge plant response rating [11, 22]: 0
- Plant response rating, Nutsedge [11, 23]: 0
- Nutsedge plant response rating [11, 24]: 0
- Plant response rating, Nutsedge [11, 26]: 0
- Nutsedge plant response rating [11, 27]: 0
- Wild oats plant response rating [12, 21]: 0
- Wild oats plant response rating [12, 22]: 0
- Plant response rating, Wild oats [12, 23]: 3
- Wild oats plant response rating [12, 24]: 0
- Plant response rating, Wild oats [12, 26]: 0
- Wild oats plant response rating [12, 27]: 0
- Bedstraw plant response rating [13, 21]: 0
- Bedstraw plant response rating [13, 22]: 0
- Bedstraw plant response rating [13, 28]: 0
- Bedstraw plant response rating [13, 24]: 0
- Bedstraw plant response rating [13, 25]: 0
- Plant response rating, Bedstraw [13, 26]: 0
- Bedstraw plant response rating [13, 27]: 0
- Ducksalad plant response rating [14, 17]: 0
- Ducksalad plant response rating [14, 18]: 0
- Ducksalad plant response rating [14, 19]: 0
- Ducksalad plant response rating [14, 20]: 0
- Sugarbeets plant response rating [15, 21]: 0
- Sugarbeets plant response rating [15, 22]: 6
- Plant response rating, Sugarbeets [15, 23]: 7
- Sugarbeets plant response rating [15, 24]: 0
- Sugarbeets plant response rating [15, 25]: 0
- Plant response rating, Sugarbeets [15, 26]: 0
- Sugarbeets plant response rating [15, 27]: 0
- Blackgrass plant response rating [16, 21]: 0
- Plant response rating, Blackgrass [16, 23]: 0
- Blackgrass plant response rating [16, 28]: 0
- Blackgrass plant response rating [16, 24]: 1
- Blackgrass plant response rating [16, 25]: 0
- Plant response rating, Blackgrass [16, 26]: 2
- Blackgrass plant response rating [16, 27]: 4
